The source of these data is patent publication US8273769B2, “Phenoxy acetic acid derivatives” (Merck Serono SA, priority 2009, dated 2012).

This assay has as its target T1, CRTH2 (Homo sapiens, UniProt Q9Y5Y4).
T1 sequence (Q9Y5Y4 1-395): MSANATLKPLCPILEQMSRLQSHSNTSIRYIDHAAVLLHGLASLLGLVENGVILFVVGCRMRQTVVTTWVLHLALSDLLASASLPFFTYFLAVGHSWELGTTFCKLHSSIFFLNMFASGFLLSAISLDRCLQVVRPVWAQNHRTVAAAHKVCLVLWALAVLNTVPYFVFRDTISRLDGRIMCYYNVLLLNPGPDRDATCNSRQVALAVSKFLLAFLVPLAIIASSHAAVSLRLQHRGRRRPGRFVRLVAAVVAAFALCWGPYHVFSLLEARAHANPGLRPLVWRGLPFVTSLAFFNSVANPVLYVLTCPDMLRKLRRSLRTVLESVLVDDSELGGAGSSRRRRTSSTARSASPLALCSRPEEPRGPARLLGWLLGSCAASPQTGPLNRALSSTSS
Nature of the assay: Radioligand binding Scintillation Proximity Assay ([3H]PGD2, hCRTH2-CHO cell membranes). Further details: host or cells: CHO cells. The conditions noted are these: 1.5 nM [3H]PGD2, hCRTH2-CHO cell membranes, SPA. On the procedure:
Adherent CHO cells expressing hCRTH2 (Euroscreen, Belgium) were cultured in 225 cm^2 cell culture flasks (Corning, USA) in 30 ml of medium. After two rinses of phosphate buffered saline (PBS), cells were harvested in 10 ml of PBS containing 1 mM EDTA, centrifuged at 500×g for 5 min at 4° C. and frozen at −80° C. The pellet was re-suspended in 50 mM Tris-HCl, pH 7.4, 2 mM EDTA, 250 mM Sucrose, containing protease inhibitor cocktail tablets, (Complete EDTA-free, Roche, Germany) and incubated 30 min at 4° C. Cells were disrupted by nitrogen cavitation (Parr Instruments, USA) at 4° C. (800 p.s.i. for 30 min), and centrifuged at 500×g for 10 min at 4° C. Pellet containing nuclei and cellular debris was discarded and supernatant was centrifuged 60 min at 4° C. at 45000×g. Membrane pellet was re-suspended in storage buffer (10 mM HEPES/KOH pH 7.4, 1 mM EDTA, 250 mM sucrose, protease inhibitor cocktail tablets) using Dounce homogenization and frozen in liquid nitrogen, and stored at −80° C.
The inhibitory activity can be investigated by a radioligand binding Scintillation Proximity Assay (SPA) (Sawyer et al., Br. J. Pharmocol 2002, 137, 1163-72). The SPA radioligand binding assay was performed at room temperature in binding buffer (10 mM HEPES/KOH pH 7.4, 10 mM MnCl2, with protease inhibitor cocktail tablets), containing 1.5 nM [^3H]PGD2 (Perkin Elmer), 10-50 μg/ml of hCRTH2-CHO cell membrane protein and 2 mg/ml of Wheat-germ agglutinin Sintillation Proximity Assay beads (RPNQ0001, GE-Healthcare) in a final volume of 100 μl in 96 well plates (Corning, USA). Non-specific binding was determined in the presence of 10 μM PGD2 (Cayman, USA). Competing Compounds of Formula (I) were diluted in dimethylsulphoxide so that the total volume of dimethylsulfoxide was kept constant at 1% dimethylsulphoxide (Me2SO). Serial dilutions of 100 μM to 100 pM were prepared and 10 μl each of the compounds of Formula (I) stock solutions were added to the binding assay reagents and incubated for 90 min with agitation at room temperature. Binding activity was determined by using a 1450 Micro-beta scintillation counter (Wallac, UK).
For orientation: Scintillation proximity formats need no separation of bound from free tracer.
For orientation: IC50 means the concentration that inhibits the measured activity by half. `O=C(O)COc1ccc(Cl)cc1C#Cc1ccccc1` [Example 1, [4-chloro-2-(phenylethynyl)phenoxy]acetic acid] registered an IC50 of 0.076 µM.

`O=C(O)COc1ccc(Cl)cc1C#Cc1ccc(Cl)cc1` [Example 2, {4-chloro-2-[(4-chlorophenyl)ethynyl]phenoxy}acetic acid] displayed a 50% inhibitory concentration (IC50) of 0.091 µM.

As for `O=C(O)COc1ccc(Cl)cc1C#Cc1ccccc1F` [Example 5, {4-chloro-2-[(2-fluorophenyl)ethynyl]phenoxy}acetic acid], the half-maximal inhibitory concentration (IC50) is 0.056 µM.

`COc1ccccc1C#Cc1cc(Cl)ccc1OCC(=O)O` [Example 6, {4-chloro-2-[(2-methoxyphenyl)ethynyl]phenoxy}acetic acid] registered an IC50 of 0.229 µM.

`O=C(O)COc1ccc(Cl)cc1C#Cc1cccc(C(F)(F)F)c1` [Example 7, (4-chloro-2-{[3-(trifluoromethyl)phenyl]ethynyl}phenoxy)acetic acid] yielded a concentration for half-maximal inhibition (IC50) of 0.111 µM.

Take `O=C(O)COc1ccc(Cl)cc1C#Cc1ccc(F)cc1F` [Example 8, {4-chloro-2-[(2,4-difluorophenyl)ethynyl]phenoxy}acetic acid]: the half-maximal inhibitory concentration (IC50) turned out to be 0.123 µM.

`O=C(O)COc1ccc(Cl)cc1C#Cc1ccccc1C(F)(F)F` [Example 9, (4-chloro-2-{[2-(trifluoromethyl)phenyl]ethynyl}phenoxy)acetic acid] displayed an IC50 of 0.03 µM.

Regarding `O=C(O)COc1ccc(Cl)cc1C#Cc1ccc(Cl)s1` [Example 10, {4-chloro-2-[(5-chloro-2-thienyl)ethynyl]phenoxy}acetic acid], the half-inhibitory concentration (IC50) is 0.267 µM.

The compound `Cn1ccnc1C#Cc1cc(Cl)ccc1OCC(=O)O` [Example 11, {4-chloro-2-[(1-methyl-1H-imidazol-2-yl)ethynyl]phenoxy}acetic acid] yielded a 50% inhibitory concentration (IC50) of 1.77 µM.

With `O=C(O)COc1ccc(Cl)cc1C#Cc1ccncc1` [Example 12, [4-chloro-2-(pyridin-4-ylethynyl)phenoxy]acetic acid], the IC50 was determined as 0.811 µM.

As for `O=C(O)COc1ccc(Cl)cc1C#Cc1ccccn1` [Example 13, [4-chloro-2-(pyridin-2-ylethynyl)phenoxy]acetic acid], the half-inhibitory concentration (IC50) was 1.44 µM.

On to `O=C(O)COc1ccc(Cl)cc1C#Cc1cccnc1` [Example 14, [4-chloro-2-(pyridin-3-ylethynyl)phenoxy]acetic acid], for which the IC50 came to 0.146 µM.

Take `CCNS(=O)(=O)c1ccc(C)c(C#Cc2cc(Cl)ccc2OCC(=O)O)c1` [Example 16, [4-chloro-2-({5-[(ethylamino)sulfonyl]-2-methylphenyl}ethynyl)phenoxy]acetic acid]: the concentration for half-maximal inhibition (IC50) was 0.006 µM.

`CS(=O)(=O)c1cccc(C#Cc2cc(Cl)ccc2OCC(=O)O)c1` [Example 18, (4-chloro-2-{[3-(methylsulfonyl)phenyl]ethynyl}phenoxy)acetic acid] yielded a half-inhibitory concentration (IC50) of 0.019 µM. This IC50 lies about 3.2-fold higher than the previous one.

In turn, `O=C(O)COc1ccc(Cl)cc1C#Cc1cccc(S(=O)(=O)CCCO)c1` [Example 19, [4-chloro-2-({3-[(3-hydroxypropyl)sulfonyl]phenyl}ethynyl)phenoxy]acetic acid] yielded an IC50 of 0.036 µM.

The compound `N#Cc1ccc(F)c(C#Cc2cc(Cl)ccc2OCC(=O)O)c1` [Example 21, {4-chloro-2-[(5-cyano-2-fluorophenyl)ethynyl]phenoxy}acetic acid] yielded a concentration for half-maximal inhibition (IC50) of 0.046 µM. This IC50 and that of the compound before are within 1.5-fold of each other.

Turning to `Cc1ncccc1C#Cc1cc(Cl)ccc1OCC(=O)O` [Example 22, {4-chloro-2-[(2-methylpyridin-3-yl)ethynyl]phenoxy}acetic acid], the half-inhibitory concentration (IC50) was 0.175 µM.

With `N#Cc1ccc(OCC(=O)O)c(C#Cc2ccccc2Cl)c1` [Example 23, {2-[(2-chlorophenyl)ethynyl]-4-cyanophenoxy}acetic acid], the 50% inhibitory concentration (IC50) is 0.03 µM.

The compound `Cc1nc(C)c(C#Cc2cc(Cl)ccc2OCC(=O)O)s1` [Example 24, {4-chloro-2-[(2,4-dimethyl-1,3-thiazol-5-yl)ethynyl]phenoxy}acetic acid] displayed an IC50 of 0.102 µM. Compared with the last compound, the IC50 is about 3.4-fold higher.

In turn, `O=C(O)COc1ccc(Cl)cc1C#Cc1cc(CO)ccc1F` [Example 25, (4-chloro-2-{[2-fluoro-5-(hydroxymethyl)phenyl]ethynyl}phenoxy)acetic acid] gave a half-inhibitory concentration (IC50) of 0.089 µM. The IC50 values of the last two compounds are within 1.5-fold of each other.

For the compound `Cc1ccc(OCC(=O)O)c(C#Cc2ccccc2Cl)c1` [Example 27, {2-[(2-chlorophenyl)ethynyl]-4-methylphenoxy}acetic acid], the IC50 turned out to be 0.346 µM.

On to `O=C(O)COc1ccc(Cl)cc1C#Cc1cccc(CO)c1F` [Example 28, (4-chloro-2-{[2-fluoro-3-(hydroxymethyl)phenyl]ethynyl}phenoxy)acetic acid], for which the IC50 came out at 0.048 µM.

`CCCCCCc1ccncc1C#Cc1cc(Cl)ccc1OCC(=O)O` [Example 29, {4-chloro-2-[(4-hexylpyridin-3-yl)ethynyl]phenoxy}acetic acid] showed a half-inhibitory concentration (IC50) of 0.051 µM.

Compound `COCc1ccc(F)c(C#Cc2cc(Cl)ccc2OCC(=O)O)c1` [Example 30, (4-chloro-2-{[2-fluoro-5-(methoxymethyl)phenyl]ethynyl}phenoxy)acetic acid] had an IC50 of 0.085 µM.

For `Cc1cc[n+]([O-])cc1C#Cc1cc(Cl)ccc1OCC(=O)O` [Example 31, {4-chloro-2-[(4-methyl-1-oxidopyridin-3-yl)ethynyl]phenoxy}acetic acid], the IC50 was 0.019 µM.

Compound `COCc1ccc(C#Cc2cc(Cl)ccc2OCC(=O)O)c(F)c1` [Example 34, (4-chloro-2-{[2-fluoro-4-(methoxymethyl)phenyl]ethynyl}phenoxy)acetic acid] had an IC50 of 0.026 µM. The IC50 values of the last two compounds are within 1.5-fold of each other.

Compound `CS(=O)(=O)c1cncc(C#Cc2cc(Cl)ccc2OCC(=O)O)c1` [Example 36, (4-chloro-2-{[5-(methylsulfonyl)pyridin-3-yl]ethynyl}phenoxy)acetic acid] gave an IC50 of 0.075 µM.

For `O=C(O)COc1cc(F)ccc1C#Cc1ccccc1Cl` [Example 37, {2-[(2-chlorophenyl)ethynyl]-5-fluorophenoxy}acetic acid], the IC50 amounted to 5.94 µM.

With `CS(=O)(=O)Nc1cncc(C#Cc2cc(Cl)ccc2OCC(=O)O)c1` [Example 39, [4-chloro-2-({5-[(methylsulfonyl)amino]pyridin-3-yl}ethynyl)phenoxy]acetic acid], the IC50 is 0.023 µM. This IC50 is about 260-fold lower than that of the compound before.

Take `O=C(O)COc1ccc(C(F)(F)F)cc1C#Cc1ccccc1Cl` [Example 41, [2-[(2-chlorophenyl)ethynyl]-4-(trifluoromethyl)phenoxy]acetic acid]: the half-inhibitory concentration (IC50) was 0.015 µM.

Compound `O=C(O)COc1ccccc1C#Cc1ccccc1Cl` [Example 45, {2-[(2-chlorophenyl)ethynyl]phenoxy}acetic acid] came in with a half-inhibitory concentration (IC50) of 0.958 µM.

For the compound `O=C(O)COc1ccc(Cl)cc1C#Cc1cncc(S(=O)(=O)NCCO)c1` [Example 46, {4-chloro-2-[(5-{[(2-hydroxyethyl)amino]sulfonyl}pyridin-3-yl)ethynyl]phenoxy}acetic acid], the concentration for half-maximal inhibition (IC50) was 0.323 µM. This IC50 lies about 3-fold lower than the previous one.

`CN(c1cncc(C#Cc2cc(Cl)ccc2OCC(=O)O)c1)S(C)(=O)=O` [Example 47, [4-chloro-2-({5-[methyl(methylsulfonyl)amino]pyridin-3-yl}ethynyl)phenoxy]acetic acid] returned an IC50 of 0.34 µM.

For the compound `CCS(=O)(=O)c1ccc(C)c(C#Cc2cc(Cl)ccc2OCC(=O)O)c1` [Example 50, (4-chloro-2-{[5-(ethylsulfonyl)-2-methylphenyl]ethynyl}phenoxy)acetic acid], the IC50 came out at 0.011 µM.

For `Cc1ccc(S(=O)(=O)C(C)C)cc1C#Cc1cc(Cl)ccc1OCC(=O)O` [Example 51, (4-chloro-2-{[5-(isopropylsulfonyl)-2-methylphenyl]ethynyl}phenoxy)acetic acid], the concentration for half-maximal inhibition (IC50) was 0.008 µM. The IC50 values of the last two compounds are within 1.5-fold of each other.

Take `Cc1ccc(S(=O)(=O)CCO)cc1C#Cc1cc(Cl)ccc1OCC(=O)O` [Example 52, [4-chloro-2-({5-[(2-hydroxyethyl)sulfonyl]-2-methylphenyl}ethynyl)phenoxy]acetic acid]: the IC50 was determined as 0.025 µM.
